# Source: US20190022198A1, “Individualized Immunomodulation Therapy for Neurodegenerative Disorders, CNS Injury and Age-Related Dementia” (Yeda Research and Development Co. Ltd., priority 2012, published 2019)
# Columns and labels:
# 5XFAD mice [1] = test: Radial arm water maze (RAWM) in GA vaccinated 5XFAD mice; assay type: in vivo, mouse
# Procedure: Mice were tested for two days on 6 radial arm water maze paradigm in a water pool, as described in Alamed et al., Nat Protoc. 2006, 1(4), 1671-1679. Briefly, mice received an injection of GA as indicated in the examples. On the first day, 15 trials were performed, in trials 1, 3, 5, 7, 9 and 11 the platform was visible, and in all other trials the platform was hidden. On the second day, 12 trials were performed, all of them with hidden platform. The time required to reach the platform and the number of errors (incorrect arm entries) in 1-min time period was recorded.
# To test the effect of different regimens of administration of Cop 1, 5XFAD females were vaccinated subcutaneously (S.C.) with 100 μg Cop 1 dissolved in 200 μl PBS. Three different regimens were compared: 5XFAD+2GA were vaccinated twice, with the second injection given three days after the first; 5XFAD+5GA were vaccinated five times, twice in the first week and once a week for another three weeks, and 5XFAD+daily GA were vaccinated every day for 28 days (19B). One day after the last GA injection, mice were sacrificed and their spleens were analyzed by FACS and compared to WT and untreated 5XFAD littermates. […] Radial arm water maze (RAWM) was performed to 4 groups of 8 months old mice to test mental cognitive performance. […]
# [2] = daily administration, subjects receiving daily injections; cited from earlier work
# 5XFAD mice [3] = test: Cop 1 (GA) vaccination regimens in 5XFAD mice: FoxP3+ T cells in spleen (FACS) and CP (staining); assay type: in vivo, mouse
# Procedure: For intracellular staining of IFN-γ or IL-17, the cells were incubated with PMA (10 ng/ml; Sigma-Aldrich) and ionomycin (250 ng/ml; Sigma-Aldrich) for 6 h, and Brefeldin-A ([…]; Sigma-Aldrich) was added for the last 4 h. Intracellular labeling of cytokines was done with BD Cytofix/Cytoperm Plus Fixation/Permeabilization kit (cat. no. 555028) according to the manufacturer's protocol. Intracellular staining of FoxP3 was performed using the FoxP3 staining kit (eBioscience) according to the manufacturer's protocol. The following fluorochrome-labeled mAbs were used according to the manufacturers' protocols: FITC-conjugated anti-TCRβ, FITC-conjugated anti-CD44, PE-conjugated anti-CD4, PE-conjugated anti-IL-17A, APC-conjugated anti-IFN-γ, FITC-conjugated anti-CD45.2, Alexa-700-conjugated anti-CD45.2, Percp-Cy5.5-conjugated anti-TCRβ (all from BioLegend), and APC-conjugated anti-FoxP3 (eBioscience). Flow cytometry analysis was performed on each sample using a BD Biosciences LSRII flow cytometer, and the acquired data were analyzed using FlowJo software (Tree star). In each experiment, relevant negative control groups and single stained samples for each tissue were used to determine the populations of interest and to exclude others.
# For whole mount staining of the choroid plexus, isolated tissues were fixed with 2.5% paraformaldehyde (PFA) for several hours, and subsequently transferred to PBS containing 0.05% sodium azide. Prior to staining, the dissected tissues were washed and blocked (20% horse serum, 0.3% Triton X-100, and PBS) for 1 h at room temperature with shaking. Whole mount staining with primary (in PBS containing 2% horse serum and 0.3% Triton X-100) and secondary antibodies (in PBS), was performed for 1h at room temperature, with shaking. Each step was followed by three washes in PBS. […] For morphological quantification, average cross-sectional area of epithelial cells was measured following Nissl staining. Cell borders (20-25 cells per picture) were marked and the area was quantified using Image-Pro Plus software in a blinded fashion. […]
substance,measurement,setting,value
Glatiramer Acetate [GA],RAWM performance (mental cognitive performance),5XFAD mice [1]; daily administration of GA for 28 days,performed as badly as the unvaccinated 5XFAD mice
same,RAWM performance (mental cognitive performance),"5XFAD mice [1]; weekly GA: twice in the first week and once a week for another 3 weeks, compared to unvaccinated 5XFAD",significantly improved
same,level of Treg cells in the blood,[2],raises the level of Treg cells in the blood
same,fold change of FoxP3+ T cells in spleen,"5XFAD mice [3]; 2GA: vaccinated twice, second injection three days after the first, 100 μg S.C., compared to untreated 5XFAD",significant decrease in the fold change of FoxP3^+ T cells
same,incidence of FoxP3+CD3+ T cells in the CP,"5XFAD mice [3]; 5XFAD+5GA, compared to untreated 5XFAD littermates",decreased
same,FoxP3+ T cells in the spleens,"5XFAD mice [3]; daily GA: every day for 28 days, 100 μg S.C.",promoted the enrichment of FoxP3^+ T cells
